The target in test [1] is T1, Human cGAS amino acids 155-522 (Homo sapiens, UniProt Q8N884).
T1 construct: hexahistidine tag (N, cleaved yes); made in house; host or cells: E. coli BL21 DE3 Rosetta 2
The test can be described thus: cGAS activity assay (DNA-activated cGAS, remaining ATP measured by Kinase-Glo Max luciferase assay). It counts as biochemical. The note with it: 300 nM purified cGAS, 1 μM dsDNA, 250 μM ATP, 100 μM GTP, 37° C. for 1.25 hours. The protocol: IC50 values were determined as follows:
Human cGAS sequence encoding amino acids 155-522 was cloned into a pET (EMD Millipore) based expression plasmid. The resulting construct contained a tandem N-terminal hexahistidine tag, maltose binding protein fusion followed by a tobacco etch virus protease cleavable linker preceding cGAS amino acids 155-522.
Construct sequence: Amino acids 155-522, Human cGAS
Protein was expressed and purified from E. coli BL21 DE3 Rosetta 2 (EMD Millipore) cells using standard techniques. Cells were grown in 2× yeast extract tryptone medium and expression was initiated via the addition of isopropyl β-D-1-thiogalactopyranoside. Expression proceeded overnight at 18° C. Cells were harvested by centrifugation and subsequently lysed via sonication. Insoluble fraction was removed by centrifugation. Maltose binding protein (MBP) fusion proteins were purified on a dextrin sepharose column (GE Healthcare) and the MBP tag was removed using tobacco etch virus protease overnight during dialysis. Protein was further purified on a heparin column (GE Healthcare) and eluted using a NaCl gradient. Column fraction were pooled and further purified on a Superdex 75 gel filtration column (GE Healthcare). Protein was quantified using 280 nm absorbance. Protein was then flash frozen in liquid nitrogen and stored at −80° C. until use.
Potential antagonists were diluted in 100% dimethyl sulfoxide and added to the reaction. Final dimethyl sulfoxide concentration was 5%. The compounds were tested from 1 μM with either 3- or 4-fold serial dilutions down to 0.000051 or 0.000004 μM respectively.
Two complementary DNA oligos (IDT DNA) were annealed by slow cooling from 95° C. The resulting double stranded DNA was used to activate cGAS.
Reactions were performed at 37° C. for 1.25 hours. Reaction buffer: 20 mM Tris HCl pH 9, 100 mM NaCl, 5 mM MgCl2, 0.1 mg/ml bovine gamma globulin, 250 μM adenosine triphosphate, 100 μM guanosine triphosphate, 0.5 mM Tris(2-carboxyethyl)phosphine hydrochloride, 1 μM double stranded DNA and 300 nM purified cGAS protein.
Reactions were stopped and ATP levels in the reaction were measured using a luciferase based assay. Promega Kinase-Glo Max Assay. Luminescence was measured on a plate reader (Molecular Devices). Values were normalized to control wells lacking compound.
(Kinase-Glo reads ATP consumption through a luciferase reaction.)

For another test, the system named is cGAS/STING pathway. The test can be described thus: THP1 cell-based cGAS/STING pathway activity assay (luciferase reporter linked to IRF-3 activation). The note with it: Homo sapiens, THP-1; THP1 cells, IRF-3 linked luciferase reporter. The procedure: A cellular assay can be used to assess the compounds of the invention for their ability to inhibit the cGAS/STING pathway. Cells that express a luciferase-based reporter that is linked to IRF-3 activation are used to determine response as a function of compound concentration. Such an assay is described in Vincent et al., Nature Communications 2017, 8(1):750, doi: 10.1038/s41467-017-00833-9. Compounds of the invention were assessed using similar assay methods in a THP1 cell assay to generate IC50 values as provided in the following Table 8. In this table, activity level “A” indicates an IC50 value less than 20 μM, “B” indicates an IC50 value between 20 and 100 μM, and “C” indicates an IC50 value above the upper limit of the assay (100 μM), or where an IC50 value could not be generated from the data.
(A reporter such as luciferase makes a cellular process visible.)

Each structure is given as a SMILES string.

T1 sequence (Q8N884 157-522): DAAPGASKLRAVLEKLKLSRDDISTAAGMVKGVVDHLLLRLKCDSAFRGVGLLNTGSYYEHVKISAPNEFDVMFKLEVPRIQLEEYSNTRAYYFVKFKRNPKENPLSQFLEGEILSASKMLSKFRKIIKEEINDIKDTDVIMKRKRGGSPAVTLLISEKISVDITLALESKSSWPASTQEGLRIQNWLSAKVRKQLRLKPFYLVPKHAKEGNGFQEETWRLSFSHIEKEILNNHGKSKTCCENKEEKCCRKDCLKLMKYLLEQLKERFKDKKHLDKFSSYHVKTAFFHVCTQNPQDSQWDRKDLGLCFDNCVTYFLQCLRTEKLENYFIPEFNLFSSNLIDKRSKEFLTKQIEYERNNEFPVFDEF

As usually defined, the IC50 is the midpoint of a concentration-inhibition curve. Take `COCCNC(=O)[C@H](Cc1ccc(C#N)cc1)Nc1nc(NCc2nc3cc(F)ccc3[nH]2)nc(Nc2cccc(CN3CCN(C(=O)c4nccnc4O)CC3)c2)n1` [TA1018, (S)-3-(4-cyanophenyl)-2-((4-(((5-fluoro-1H-benzo[d]imidazol-2-yl)methyl)amino)-6-((3-((4-(3-hydroxypyrazine-2-carbonyl)piperazin-1-yl)methyl)phenyl)amino)-1,3,5-triazin-2-yl)amino)-N-(2-methoxyethyl)propanamide]: the IC50 in test [1] is less than 20 µM; with cGAS/STING pathway it was more than 100 µM.

Take `COC(=O)[C@H](Cc1ccc(C#N)cc1)Nc1nc(Nc2cccc(CN3CCN(C(=O)c4csnn4)CC3)c2)nc(N(C)CCc2nc3ccc(OC)cc3[nH]2)n1` [TA1055, methyl (S)-2-((4-((3-((4-(1,2,3-thiadiazole-4-carbonyl)piperazin-1-yl)methyl)phenyl)amino)-6-((2-(6-methoxy-1H-benzo[d]imidazol-2-yl)ethyl)(methyl)amino)-1,3,5-triazin-2-yl)amino)-3-(4-cyanophenyl)propanoate]: the IC50 in test [1] was more than 250 µM. In test [1], `COC(=O)[C@H](Cc1ccc(C#N)cc1)Nc1nc(Nc2cccc(CN3CCN(C(=O)[C@@H]4CCCO4)CC3)c2)nc(N(C)CCc2nc3ccc(OC)cc3[nH]2)n1` [TA1056, methyl (S)-3-(4-cyanophenyl)-2-((4-((2-(6-methoxy-1H-benzo[d]imidazol-2-yl)ethyl)(methyl)amino)-6-((3-((4-((S)-tetrahydrofuran-2-carbonyl)piperazin-1-yl)methyl)phenyl)amino)-1,3,5-triazin-2-yl)amino)propanoate] displayed an IC50 of more than 250 µM. The same measure, in the same setting: the value for `COC(=O)[C@H](Cc1ccc(C#N)cc1)Nc1nc(NCc2nc3cc(Cl)ccc3[nH]2)nc(Nc2cccc(CN3CCNCC3)c2)n1` [TA1058, methyl (S)-2-((4-(((5-chloro-1H-benzo[d]imidazol-2-yl)methyl)amino)-6-((3-(piperazin-1-ylmethyl)phenyl)amino)-1,3,5-triazin-2-yl)amino)-3-(4-cyanophenyl)propanoate] was 20 to 250 µM; that for `COC(=O)[C@H](Cc1ccc(C#N)cc1)Nc1nc(NCc2nc3cc(Cl)ccc3[nH]2)nc(Nc2cccc(CN3CCN(C(=O)c4cccc(-n5cccn5)c4)CC3)c2)n1` [TA1060, methyl (S)-2-((4-((3-((4-(3-(1H-pyrazol-1-yl)benzoyl)piperazin-1-yl)methyl)phenyl)amino)-6-(((5-chloro-1H-benzo[d]imidazol-2-yl)methyl)amino)-1,3,5-triazin-2-yl)amino)-3-(4-cyanophenyl)propanoate] was more than 250 µM; that for `COC(=O)[C@H](Cc1ccc(C#N)cc1)Nc1nc(NCc2nc3cc(Cl)ccc3[nH]2)nc(Nc2cccc(CN3CCN(C=O)CC3)c2)n1` [TA1062, methyl (S)-2-((4-(((5-chloro-1H-benzo[d]imidazol-2-yl)methyl)amino)-6-((3-((4-formylpiperazin-1-yl)methyl)phenyl)amino)-1,3,5-triazin-2-yl)amino)-3-(4-cyanophenyl)propanoate] was 20 to 250 µM. The molecule `COC(=O)[C@H](Cc1ccccc1)Nc1nc(NCc2nc3cc(F)ccc3[nH]2)nc(Nc2cccc(CN3CCNCC3)c2)n1` [TA1064, methyl (4-(((5-fluoro-1H-benzo[d]imidazol-2-yl)methyl)amino)-6-((3-(piperazin-1-ylmethyl)phenyl)amino)-1,3,5-triazin-2-yl)phenylalaninate] had an IC50 in test [1] of more than 250 µM. On the same count and under the same terms, the value for `COC(=O)[C@H](Cc1ccc(C#N)cc1)Nc1nc(NCc2nnn[nH]2)nc(Nc2cccc(CN3CCNCC3)c2)n1` [TA1068, methyl (S)-2-((4-(((1H-tetrazol-5-yl)methyl)amino)-6-((3-(piperazin-1-ylmethyl)phenyl)amino)-1,3,5-triazin-2-yl)amino)-3-(4-cyanophenyl)propanoate] was more than 250 µM; that for `COC(=O)[C@H](Cc1ccc(C#N)cc1)Nc1nc(NCc2nnn[nH]2)nc(Nc2cccc(CN3CCN(C(=O)c4nccnc4O)CC3)c2)n1` [TA1069, methyl (S)-2-((4-(((1H-tetrazol-5-yl)methyl)amino)-6-((3-((4-(3-hydroxypyrazine-2-carbonyl)piperazin-1-yl)methyl)phenyl)amino)-1,3,5-triazin-2-yl)amino)-3-(4-cyanophenyl)propanoate] was more than 250 µM. For the molecule `COC(=O)[C@H](CC1CCCCC1)Nc1nc(NCc2nc3cc(F)ccc3[nH]2)nc(Nc2cccc(CN3CCN(C(=O)c4nccnc4O)CC3)c2)n1` [TA1072, methyl (S)-3-cyclohexyl-2-((4-(((5-fluoro-1H-benzo[d]imidazol-2-yl)methyl)amino)-6-((3-((4-(3-hydroxypyrazine-2-carbonyl)piperazin-1-yl)methyl)phenyl)amino)-1,3,5-triazin-2-yl)amino)propanoate], the IC50 in test [1] is less than 20 µM. On the same count and under the same terms, then `Cc1cc2nc(CN(C)c3nc(Nc4cccc(CN5CCN(S(=O)(=O)c6cnn(C)c6C)CC5)c4)nc(N[C@@H](Cc4ccc(C#N)cc4)C(=O)N(C)C)n3)[nH]c2cc1C` [TA1073, (S)-3-(4-cyanophenyl)-2-((4-(((5,6-dimethyl-1H-benzo[d]imidazol-2-yl)methyl)(methyl)amino)-6-((3-((4-((1,5-dimethyl-1H-pyrazol-4-yl)sulfonyl)piperazin-1-yl)methyl)phenyl)amino)-1,3,5-triazin-2-yl)amino)-N,N-dimethylpropanamide], with more than 250 µM. In test [1], `COC(=O)[C@H](Cc1ccc(C#N)cc1)Nc1nc(Nc2cccc(CN3CCN(C(=O)c4nccnc4O)CC3)c2)nc(OC)n1` [TA1074, methyl (S)-3-(4-cyanophenyl)-2-((4-((3-((4-(3-hydroxypyrazine-2-carbonyl)piperazin-1-yl)methyl)phenyl)amino)-6-methoxy-1,3,5-triazin-2-yl)amino)propanoate] came in with an IC50 of more than 250 µM. As to `COC(=O)[C@H](Cc1ccc(C#N)cc1)Nc1nc(NCc2nc3cc(F)ccc3[nH]2)nc(Nc2cccc(CN3CCN(C(C)=O)CC3)c2)n1` [TA1075, methyl (S)-2-((4-((3-((4-acetylpiperazin-1-yl)methyl)phenyl)amino)-6-(((5-fluoro-1H-benzo[d]imidazol-2-yl)methyl)amino)-1,3,5-triazin-2-yl)amino)-3-(4-cyanophenyl)propanoate], in test [1], the half-inhibitory concentration (IC50) is more than 250 µM. Same read-out and setting: then `COC(=O)[C@H](Cc1ccc(C#N)cc1)Nc1nc(Nc2cccc(CN3CCN(C(C)=O)CC3)c2)nc(N(Cc2nc3cc(F)ccc3[nH]2)C(C)=O)n1` [TA1076, methyl (S)-2-((4-((3-((4-acetylpiperazin-1-yl)methyl)phenyl)amino)-6-(N-((5-fluoro-1H-benzo[d]imidazol-2-yl)methyl)acetamido)-1,3,5-triazin-2-yl)amino)-3-(4-cyanophenyl)propanoate], with more than 250 µM; and `COC(=O)[C@H](Cc1ccc(C#N)cc1)Nc1nc(Nc2cccc(CN3CCN(C=O)CC3)c2)nc(OC)n1` [TA1077, methyl (S)-3-(4-cyanophenyl)-2-((4-((3-((4-formylpiperazin-1-yl)methyl)phenyl)amino)-6-methoxy-1,3,5-triazin-2-yl)amino)propanoate], with more than 250 µM. In the case of `COC(=O)[C@H](Cc1ccc(C#N)cc1)Nc1nc(NCc2nc3cc(F)ccc3[nH]2)nc(Nc2cccc(CN3CCN(C(=O)c4nccnc4OC)CC3)c2)n1` [TA1078, methyl (S)-3-(4-cyanophenyl)-2-((4-(((5-fluoro-1H-benzo[d]imidazol-2-yl)methyl)amino)-6-((3-((4-(3-methoxypyrazine-2-carbonyl)piperazin-1-yl)methyl)phenyl)amino)-1,3,5-triazin-2-yl)amino)propanoate], the IC50 in test [1] was more than 250 µM. Turning to `COC(=O)[C@H](Cc1ccc(C#N)cc1)Nc1nc(NCc2nc3cc(F)ccc3[nH]2)nc(Nc2cccc(CN3CCN(C(=O)C4CCN(S(C)(=O)=O)CC4)CC3)c2)n1` [TA1079, methyl (S)-3-(4-cyanophenyl)-2-((4-(((5-fluoro-1H-benzo[d]imidazol-2-yl)methyl)amino)-6-((3-((4-(1-(methylsulfonyl)piperidine-4-carbonyl)piperazin-1-yl)methyl)phenyl)amino)-1,3,5-triazin-2-yl)amino)propanoate], the 50% inhibitory concentration (IC50) in test [1] is more than 250 µM.

(Values after patent publication US20210246122A1, “Triazine Compounds and Uses Thereof” (Aduro Biotech, Inc., priority 2018, published 2021).)
